{
  "source": "ChEMBL document CHEMBL1141148",
  "about": "“Antidiabetic activity of passive nonsteroidal glucocorticoid receptor modulators” (J Med Chem, 2005)",
  "key": {"[1]": {"test": "Free fatty acid (FFA) levels in ob/ob mice after 30 days of oral dose at 100 mpk b.i.d.", "type": "ADME", "details": "mouse, in vivo, 100 mg/kg, 720 h"}, "[2]": {"test": "Plasma protein binding of tritium labeled compound in mouse plasma was determined", "type": "ADME, cell-free", "details": "read-out: Protein binding (converted)"}, "[3]": {"test": "Liver TAT levels in ob/ob mice after 14 days of oral dose at 30 mpk b.i.d.", "type": "ADME, tissue-based", "details": "mouse, in vivo, 30 mg/kg, 336 h"}, "[4]": {"test": "Liver TAT levels in ob/ob mice after 14 days of oral dose at 100 mpk b.i.d.", "type": "ADME, tissue-based", "details": "mouse, in vivo, 100 mg/kg, 336 h"}, "[5]": {"test": "Plasma protein binding of tritium labeled compound in human plasma was determined", "type": "ADME, cell-free", "details": "read-out: Protein binding"}, "[6]": {"test": "Insulin levels in ob/ob mice after 14 days of oral dose at 30 mpk b.i.d.", "type": "ADME", "details": "mouse, in vivo, 30 mg/kg, 336 h"}, "[7]": {"test": "Aspartate aminotransferase /alanine aminotransferase levels in ob/ob mice after 30 days of oral dose at 100 mpk b.i.d.", "type": "ADME", "details": "mouse, in vivo, 100 mg/kg, 720 h"}, "[8]": {"test": "Compound level in liver in ob/ob mice after 13 days of […] mpk oral dose of compound", "type": "ADME, tissue-based", "details": "mouse, 30 mg/kg, read-out: Level"}, "[9]": {"test": "HbA1c levels in ob/ob mice after 30 days of oral dose at 100 mpk b.i.d.", "details": "mouse, in vivo, 100 mg/kg, 720 h"}, "[10]": {"test": "Triglyceride levels in ob/ob mice after 30 days of oral dose at 100 mpk b.i.d.", "type": "ADME", "details": "mouse, in vivo, 100 mg/kg, 720 h"}, "[11]": {"test": "Insulin levels in ob/ob mice after 14 days of oral dose at 100 mpk b.i.d.", "type": "ADME", "details": "mouse, in vivo, 100 mg/kg, 336 h"}, "[12]": {"test": "Cholesterol levels in ob/ob mice after 14 days of oral dose at 100 mpk b.i.d.", "type": "ADME", "details": "mouse, in vivo, 100 mg/kg, 336 h"}, "[13]": {"test": "Glucose levels in ob/ob mice after 14 days of oral dose at 30 mpk b.i.d.", "type": "ADME", "details": "mouse, in vivo, 30 mg/kg, 336 h"}, "Mus musculus [14]": {"organism": "Mus musculus", "test": "Initial weight of the ob/ob mice before oral treatment at 100 mpk b.i.d. for 14 days", "type": "functional"}, "[15]": {"test": "Plasma protein binding of tritium labeled compound in rat plasma was determined", "type": "ADME, cell-free", "details": "read-out: Protein binding"}, "[16]": {"test": "Glucose levels in ob/ob mice after 14 days of oral dose at 100 mpk b.i.d.", "type": "ADME", "details": "mouse, in vivo, 100 mg/kg, 336 h"}, "[17]": {"test": "Aspartate aminotransferase /alanine aminotransferase levels in ob/ob mice after 30 days of oral dose at 30 mpk b.i.d.", "type": "ADME", "details": "mouse, in vivo, 30 mg/kg, 720 h"}, "[18]": {"test": "Cholesterol levels in ob/ob mice after 14 days of oral dose at 30 mpk b.i.d.", "type": "ADME", "details": "mouse, in vivo, 30 mg/kg, 336 h"}, "Mus musculus [19]": {"organism": "Mus musculus", "test": "Final weight of the ob/ob mice after 14 days of oral treatment at 30 mpk b.i.d.", "type": "functional"}, "[20]": {"test": "Free fatty acid (FFA) levels in ob/ob mice after 14 days of oral dose at 30 mpk b.i.d.", "type": "ADME", "details": "mouse, in vivo, 30 mg/kg, 336 h"}, "[21]": {"test": "Free fatty acid (FFA) levels in ob/ob mice after 30 days of oral dose at 30 mpk b.i.d.", "type": "ADME", "details": "mouse, in vivo, 30 mg/kg, 720 h"}, "[22]": {"test": "Cholesterol levels in ob/ob mice after 30 days of oral dose at 100 mpk b.i.d.", "type": "ADME", "details": "mouse, in vivo, 100 mg/kg, 720 h"}, "[23]": {"test": "Compound level in plasma in ob/ob mice after 13 days of 100 mpk oral dose of compound", "type": "ADME", "details": "mouse, 100 mg/kg, read-out: Level"}, "[24]": {"test": "Glucose levels in ob/ob mice after 13 days of oral dose at 10 mpk b.i.d.", "type": "ADME", "details": "mouse, in vivo, 10 mg/kg, 312 h"}, "[25]": {"test": "Insulin levels in ob/ob mice after 13 days of oral dose at 10 mpk b.i.d.", "type": "ADME", "details": "mouse, in vivo, 10 mg/kg, 312 h"}, "[26]": {"test": "Glucose levels in ob/ob mice after 13 days of oral dose at 100 mpk b.i.d.", "type": "ADME", "details": "mouse, in vivo, 100 mg/kg, 312 h"}, "[27]": {"test": "Alanine aminotransferase (ALT) levels in ob/ob mice after 13 days of oral dose at 10 mpk b.i.d.", "type": "ADME", "details": "mouse, in vivo, 10 mg/kg, 312 h"}, "Mus musculus [28]": {"organism": "Mus musculus", "test": "Final weight of the ob/ob mice after 13 days of oral treatment at 10 mpk b.i.d.", "type": "functional"}, "Mus musculus [29]": {"organism": "Mus musculus", "test": "Final weight of the ob/ob mice after 13 days of oral treatment at 100 mpk b.i.d.", "type": "functional"}, "[30]": {"test": "Clearance of the compound in rat after 5 mg/kg iv dose was determined", "details": "in vivo"}, "[31]": {"test": "Free fatty acid (FFA) levels in ob/ob mice after 13 days of oral dose at 10 mpk b.i.d.", "type": "ADME", "details": "mouse, in vivo, 10 mg/kg, 312 h"}, "Mus musculus [32]": {"organism": "Mus musculus", "test": "Initial weight of the ob/ob mice before oral treatment at 10 mpk b.i.d. for 13 days", "type": "functional"}, "[33]": {"test": "Free levels in ob/ob mice after 13 days of oral dose at 100 mpk b.i.d.", "type": "ADME", "details": "mouse, in vivo, 100 mg/kg, 312 h"}},
  "note": "Where “and” joins values, the source holds several entries; their conditions need not be identical. Identical values can stand only once.",
  "data": [
    {"smiles": "Cc1c(NS(C)(=O)=O)cccc1N(Cc1ccc(Oc2ccc(F)c(OCC(=O)O)c2)cc1)Cc1ccc(F)cc1F", "values": [
      {"measurement": "Level", "setting": "[1]", "result": 1.27, "unit": "mequiv/L"},
      {"measurement": "fraction unbound", "setting": "[2]", "result": 0.003},
      {"measurement": "Level", "setting": "[3]", "result": "1.7 nmol ofpHB/min/mgof protein"},
      {"measurement": "Level", "setting": "[4]", "result": "2.4 nmol ofpHB/min/mgof protein"},
      {"measurement": "fraction unbound", "setting": "[5]", "result": 0.001},
      {"measurement": "Level", "setting": "[6]", "result": 0.025, "unit": "µg/mL"},
      {"measurement": "Level", "setting": "[7]", "result": 303, "unit": "units/mL"},
      {"measurement": "concentration at 312 h", "setting": "[8]", "result": 20000, "unit": "ng/g"},
      {"measurement": "Level", "setting": "[9]", "result": 7.7, "unit": "%"},
      {"measurement": "Level", "setting": "[10]", "result": 1630, "unit": "µg/mL"},
      {"measurement": "Level", "setting": "[11]", "result": 0.0328, "unit": "µg/mL"},
      {"measurement": "Level", "setting": "[12]", "result": 1340, "unit": "µg/mL"},
      {"measurement": "Level", "setting": "[13]", "result": 3140, "unit": "µg/mL"},
      {"measurement": "Weight", "setting": "Mus musculus [14]", "result": 40, "unit": "g"},
      {"measurement": "fraction unbound", "setting": "[15]", "result": 0.001},
      {"measurement": "Level", "setting": "[16]", "result": 2330, "unit": "µg/mL"},
      {"measurement": "Level", "setting": "[17]", "result": 395, "unit": "units/mL"},
      {"measurement": "Level", "setting": "[18]", "result": 2250, "unit": "µg/mL"},
      {"measurement": "Weight", "setting": "Mus musculus [19]", "result": 49.2, "unit": "g"},
      {"measurement": "Level", "setting": "[20]", "result": 0.99, "unit": "mequiv/L"},
      {"measurement": "Level", "setting": "[21]", "result": 0.99, "unit": "mequiv/L"},
      {"measurement": "Level", "setting": "[22]", "result": 2390, "unit": "µg/mL"}
    ]},
    {"smiles": "Cc1c(NS(C)(=O)=O)cccc1N(Cc1ccccc1)Cc1ccc(Oc2ccc(OCC(=O)O)cc2)cc1", "values": [
      {"measurement": "concentration at 312 h", "setting": "[23]", "result": 1.6, "unit": "µg/mL"},
      {"measurement": "Level", "setting": "[24]", "result": 3330, "unit": "µg/mL"},
      {"measurement": "Level", "setting": "[25]", "result": 0.02, "unit": "µg/mL"},
      {"measurement": "Level", "setting": "[26]", "result": 2900, "unit": "µg/mL"},
      {"measurement": "Level", "setting": "[27]", "result": "786 units/mL and 282 units/mL"},
      {"measurement": "Weight", "setting": "Mus musculus [28]", "result": 49.3, "unit": "g"},
      {"measurement": "Weight", "setting": "Mus musculus [29]", "result": 46.6, "unit": "g"},
      {"measurement": "Clearance", "setting": "[30]", "result": 233, "unit": "mL/min/kg"},
      {"measurement": "Level", "setting": "[31]", "result": 1.3, "unit": "mequiv/L"},
      {"measurement": "Weight", "setting": "Mus musculus [32]", "result": 45.4, "unit": "g"},
      {"measurement": "Level", "setting": "[33]", "result": 1, "unit": "mequiv/L"}
    ]}
  ]
}
